{
  "source": "patent US20210008220A1",
  "about": "“PHARMACEUTICAL COMPOSITIONS CONTAINING POLYROTAXANES” (UNIVERSITY OF GEORGIA RESEARCH FOUNDATION, INC., priority 2018, published 2021)",
  "key": {"[1]": {"test_system": "NIO J774A.1 macrophage cells", "assay": "in vitro cytotoxicity, resazurin assay, NIO cells", "format": "cell-based", "settings": "Mus musculus, J774.A1, 48 h, rPR-DFO at equivalent DFO concentrations, read-out: concentration inhibiting 50% cell viability", "experimental": "Briefly, both NIO and IO J774A.1 macrophage cells were seeded in 96-well plates at a density of 3,000 cells/well, cultured at 37° C., 5% CO2 and 100% humidity with DMEM complete medium for 24 h. Cells were then treated with 1 mM free DFO or rPR-DFO at equivalent DFO concentrations (prepared by 1:3 serial dilutions) for 48 h; equivalent rPR-OH based on w/v to rPR-DFO concentrations was also investigated. Next, the substrate resazurin was dissolved in cell culture medium at a concentration of 44 μM, added to each well (100 μl), and incubated at 37° C. for 4 h. The fluorescence change was monitored by exciting at 560 nm and measuring emission at 590 nm with a SpectraMax Gemini EM microplate reader. Readings from wells without cells were used as Eblank, and the readings from control cells without treatment (Econtrol) represented 100% cell viability. The viability of treated cells was calculated by the following equation:"}, "[2]": {"settings": "in humans; cited from earlier work"}, "NIO mice (Balb/C)": {"test_system": "NIO mice (Balb/C)", "assay": "acute toxicity in normal NIO mice", "format": "in vivo, mouse", "settings": "single-dose 300 mg/kg DFO equiv or 100 mg/kg DFO equiv every 2 days x6, tail-vein, 14 days", "protocol": "Normal NIO mice (Balb/C, Female, 6 weeks old), randomly divided into 7 groups (n=6), were treated with saline, single-dose (300 mg/kg DFO equiv) or multiple-dose (100 mg/kg DFO equiv every 2 days, six doses total) regimens of DFO, rPR-DFO, and rPR-OH (same concentrations as rPR-DFO based on w/v) via tail-vein injections (10 μL/g). Mice were monitored for 14 days for signs of acute toxicity based on body weight loss, changes in appetite, and changes in behavior such as altered gait and lethargy. The body weights of the mice were recorded every other day over the course of the study. Mice were euthanized by CO2 overdose on the 14th day. The lungs, heart, spleen, kidneys, brain and liver of animals were subsequently harvested, rinsed with fresh PBS, blotted dry with Whatman filter paper, and then weighed (note that organ weight is reported as mg of total organ weight per g of animal bw, mg/g). […] Mice also behaved normally and no changes in appetite were noted."}},
  "data": [
    {"smiles": "CC(=O)N(O)CCCCCNC(=O)CCC(=O)N(O)CCCCCNC(=O)CCC(=O)N(O)CCCCCN", "note": "[DFO, Deferoxamine]", "values": [
      {"measurement": "IC50", "setting": "[1]", "value": "~10", "unit": "µM"},
      {"measurement": "half-life (blood circulation)", "setting": "[2]", "value": "ca. 20 min"},
      {"measurement": "acute toxicity based on body weights and organ weights", "setting": "NIO mice (Balb/C)", "value": "no apparent evidence of acute toxicity"}
    ]}
  ]
}
